# Measurements published in US10617680B2 (CELGENE QUANTICEL RESEARCH, INC., priority 2017, dated 2020).
# Molecular target: CBP (Homo sapiens (Human), UniProt Q92793)
# Test: In vitro CBP inhibition (AlphaScreen, biotinylated H4-tetraacetyl peptide)
# Format: binding
# Settings: AlphaScreen, Table 29; read-out: CBP IC50
# Method in brief: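 His-tagged CBP expressed in E. coli (50 nM final) incubated with biotinylated H4K5/8/12/16(Ac) peptide (20 nM final) in 50 mM HEPES pH 7.3, 10 mM NaCl, 0.25 mM TCEP, 0.1% BSA, 0.005% Brij-35, 0.4% DMSO, 20 min at room temp.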
# CBP, sequence (Q92793 1081-1197): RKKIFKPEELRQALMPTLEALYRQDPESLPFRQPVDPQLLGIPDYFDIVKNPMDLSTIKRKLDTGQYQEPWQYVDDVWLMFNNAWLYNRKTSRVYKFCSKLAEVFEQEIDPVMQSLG
row,IC50 [nM],SMILES
1,< 500,"COc1ccc(-c2cc(=O)n(C)cc2-c2cnn(-c3ccccc3C#N)c2)cc1OC [Example 243, 2-(4-(4-(3,4-dimethoxyphenyl)-1-methyl-6-oxo-1,6-dihydropyridin-3-yl)-1H-pyrazol-1-yl)benzonitrile]"
2,< 500,"Cn1cc(-c2cnn(C3CCCCC3O)c2)c(-c2ccccc2)cc1=O (stereo not drawn) [Example 321, 5-(1-(2-hydroxycyclohexyl)-1H-pyrazol-4-yl)-1-methyl-4-phenylpyridin-2(1H)-one]"
3,< 500,"Cn1cc(-c2cnn(-c3cccc(Cl)c3C#N)c2)c(-c2ccc(C3CC3)nc2)cc1=O [Example 366, 2-chloro-6-[4-[4-(6-cyclopropyl-3-pyridyl)-1-methyl-6-oxo-3-pyridyl]pyrazol-1-yl]benzonitrile]"
4,< 500,"Cn1cc(-c2cnn(-c3cccc(C4CC4)c3C#N)c2)c(-c2ccn(CCO)c(=O)c2)cc1=O [Example 390, 2-cyclopropyl-6-[4-[4-[1-(2-hydroxyethyl)-2-oxo-4-pyridyl]-1-methyl-6-oxo-3-pyridyl]pyrazol-1-yl]benzonitrile]"
5,< 500,"CCS(=O)(=O)NC(=O)c1ccccc1-n1cc(-c2cn(C)c(=O)cc2C2CC2)cn1 [Example 303, Ethanesulfonic acid 2-[4-(4-cyclopropyl-1-methyl-6-oxo-1,6-dihydro-pyridin-3-yl)-pyrazol-1-yl]-benzoylamide]"
6,< 500,"CCc1ccc(-c2cc(=O)n(C)cc2-c2cnn(-c3cccc(Cl)c3C#N)c2)cn1 [Example 371, 2-chloro-6-(4-(6-ethyl-1′-methyl-6′-oxo-1′,6′-dihydro-[3,4′-bipyridin]-3′-yl)-1H-pyrazol-1-yl)benzonitrile]"
7,< 500,"CCOc1ccc(-c2cc(=O)n(C)cc2-c2cnn(-c3ccccc3C(=O)O)c2)cn1 [Example 230, 2-[4-(6-Ethoxy-1′-methyl-6′-oxo-1′,6′-dihydro-[3,4′]bipyridinyl-3′-yl)-pyrazol-1-yl]-benzoic acid]"

# More lines, now with the values behind:
row,SMILES,IC50 [nM]
1,"CC(c1ccccc1)n1cc(-c2cn(C)c(=O)cc2OC2CCCCC2)cn1 (stereo not drawn) [Example 52, 4-(cyclohexyloxy)-1-methyl-5-(1-(1-phenylethyl)-1H-pyrazol-4-yl) pyridin-2(1H)-one]",< 500
2,"CC(=O)NC[C@@H]1CCN(c2cc(=O)n(C)cc2-c2cnn(Cc3ccccc3)c2)C1 (stereo in doubt) [Example 89, N-{1-[5-(1-benzyl-1H-pyrazol-4-yl)-1-methyl-2-oxo-1,2-dihydro-pyridin-4-yl]-pyrrolidin-3-ylmethyl}-acetamide]",< 500
3,"CC(C)Oc1cc(=O)n(C)cc1-c1cnn(C(C)c2ccccc2)c1 (stereo not drawn) [Example 36, 4-isopropoxy-1-methyl-5-(1-(1-phenylethyl)-1H-pyrazol-4-yl)pyridin-2(1H)-one]",< 500
4,"Cn1cc(-c2cnn(Cc3ccccc3)c2)c2ccccc2c1=O [Example 8, 4-(1-benzyl-1H-pyrazol-4-yl)-2-methyliso-quinolin-1(2H)-one]",< 500
5,"C[C@@H](c1ccccc1)n1cc(-c2cn(C)c(=O)cc2-n2cccn2)cn1 [Example 60, (S)-1-methyl-5-(1-(1-phenylethyl)-1H-pyrazol-4-yl)-4-(1H-pyrazol-1-yl)pyridin-2(1H)-one]",< 500
6,"CCOc1cc(=O)n(C)cc1-c1cn(Cc2ccccc2)nc1N [Example 186, 5-(3-amino-1-benzyl-1H-pyrazol-4-yl)-4-ethoxy-1-methylpyridin-2(1H)-one]",< 500
7,"Cn1cc(-c2cnn(CC3CC3)c2)c(-n2ccc(C(=O)O)c2)cc1=O [Example 86, 1-(5-(1-(cyclopropylmethyl)-1H-pyrazol-4-yl)-1-methyl-2-oxo-1,2-dihydropyridin-4-yl)-1H-pyrrolc-3-carboxylic acid]",< 500
8,"Cc1cccc(C)c1-c1cc(=O)n(C)cc1-c1cnn(Cc2ccccc2)c1 [Example 189, 5-(1-Benzyl-1H-pyrazol-4-yl)-4-(2,6-dimethyl-phenyl)-1-methyl-1H-pyridin-2-one]",> 5000
